Reference: patent US12643861B2, “Crystalline form of fluvatinib or fluvatinib methanesulfonate and preparation method therefor” (CHONGQING PHARMACEUTICAL RESEARCH INSTITUTE CO., LTD, priority 2020, dated 2026)
Where a name gives a salt, the structure may show the parent alone. Read-outs that look alike come from different tables or passages of the source. Values belong to the molecule of their own block, whether it stands above or below them.

How the values were obtained:
Assay type in all cases: physicochemical
[1] = Dynamic vapor sorption (DVS) hygroscopicity
Protocol: At the same time, the crystalline form I of fluvatinib mesylate was tested for dynamic hygroscopicity by DVS to detect water content. […] This indicates again that the crystalline form I of fluvatinib mesylate has good stability.
The crystalline form III of fluvatinib mesylate was tested for hygroscopicity under humidity conditions of 25° C., 0-90% RH, using a dynamic moisture tester a dynamic vapor sorption (DVS) analyzer.

[2] = Stability under high temperature and high humidity for half of a month or 3 months
[3] = Crystalline form stability on tableting and storage of tablets, XRPD; conditions: for crystal transformation during the process of preparing tablets: direct compression tablets, 30% crystalline form; for crystal transformation after the tablets being placed for 6 months: 40° C., 75% RH
Protocol: The formula amounts of the crystalline form of fluvatinib mesylate, anhydrous lactose and direct compression starch were mixed, and then mixed with magnesium stearate. The mixture was prepared into tablets by direct compression method, with each table weighed 200 mg.
The crystalline forms before and after being prepared into tablets and after the tablets being placed in 40° C., 75% RH environment for 6 months were detected by XRPD. The results are shown in FIGS. 19 and 20, wherein A, B, and C represent XRPD patterns of the crystalline form before and after being prepared into tablets and after the tablets being placed for 6 months.

[4] = Stability of crystalline form I of fluvatinib mesylate stirred in acetone, ethanol, ethyl acetate, XRPD; conditions: acetone or ethyl acetate, stirred 10 h at room temperature
Protocol: The crystalline form I of fluvatinib mesylate was stored in acetone, ethanol and ethyl acetate to investigate whether there was a crystal transformation.
3 parts of about 50 mg the crystalline form I of fluvatinib mesylate were weighed and respectively added to reaction flasks containing an appropriate amount of acetone, ethanol, or ethyl acetate solvent. The suspension samples were placed on magnetic stirrers, stirred for 10 h at room temperature, and filtered. The filter cake was dried at 40-50° C. with spinning under reduced pressure. The obtained dry samples were detected by XRPD.

[5] = Hydrothermal stability of the crystalline forms of fluvatinib mesylate, XRPD; conditions: Table 11
Protocol: The crystalline forms I, III, IV, V, VI, and VII of fluvatinib mesylate of the present disclosure were placed in harsh environments to investigate their stability. They were placed under high temperature and high humidity conditions: 25° C. 92.5% R.H for 7 days, 40° C. 75% R.H for 14 days, and 60° C. for 14 days, and then detected by XRPD.

[6] = Crystal transformation test of crystalline form I of fluvatinib stirred in solvents, XRPD; conditions: 40° C.
Protocol: The crystalline form I of fluvatinib was placed in an organic solvent and a water-containing organic solvent, and stirred at 40° C. for 2 days to investigate whether there was a crystal transformation.
A number parts of about 30 mg of the crystalline form I of fluvatinib (Form I) were respectively weighed and added to different glass bottles, and added with an appropriate amount of a single organic solvent or a mixture containing water (see Table 8) to form suspensions. The above-mentioned suspension samples were placed on magnetic stirrers (40° C.) to perform a stirring test. After being stirring at 40° C. for 2 days, the suspension samples were filtered. The filter cake samples were then dried overnight in a vacuum dry box (40° C.), and the dried samples were detected by XRPD (see Table 8 and FIG. 14).

[7] = Crystal transformation of fluvatinib mesylate crystalline forms stirred in ethanol, XRPD
Protocol: The crystalline form of the fluvatinib methanesulfonate was investigated on its stability in ethanol, to see whether there is crystal transformation.
About 0.15 g of the crystalline forms II (Form II), III (Form III), VI (Form VI) and VII (Form VII) of the fluvatinib mesylate were weighed and respectively added to reaction flasks containing ethanol, stirred magnetically for 2 days at room temperature, and filtered. The filter cakes were dried at 40-50° C. with spinning under reduced pressure. The obtained dried samples were detected by XRPD.

[8] = Solubility compared with lenvatinib; conditions: method or value not given
[9] = High temperature suspension experiment (50° C.) in organic solvents, XRPD; conditions: 25 mg, 24 hours
Protocol: The crystalline form III of fluvatinib mesylate was subjected to high temperature suspension experiments (50° C.), to investigate whether the crystalline form III of fluvatinib mesylate undergoes crystal transformation in various type of common organic solvents, and whether it is stable. The crystalline form III of fluvatinib mesylate was suspended in 12 types of organic solvents (in 1 mL of solvent) and water as set forth in Table 10 at a temperature of 50° C. and an amount of about 25 mg for 24 hours. The solids after being suspended in the organic solvents were detected by XRPD.

[10] = Stability of crystalline form III of fluvatinib mesylate in air (oxygen gas), oxidation; conditions: exposed to air
Description: To investigate the stability of the crystalline form III of fluvatinib mesylate (Form III), Form III was exposed to air and contacted with oxygen.

[11] = listed as crystalline forms of fluvatinib
[12] = ethanol, stirred 2 days at room temperature
[13] = stirred in ethanol for 2-4 days

crystal transformation under high temperature and high humidity conditions [5]: undergone crystal transformation
SMILES: COc1cc2nccc(Oc3ccc(NC(=O)NC4CC4)c(Cl)c3F)c2cc1C(N)=O [crystalline form V of fluvatinib mesylate] [fluvatinib methanesulfonate]

crystal transformation in ethanol [7, 12]: converted to Form III
crystal transformation under high temperature and high humidity conditions [5]: undergone crystal transformation
SMILES: COc1cc2nccc(Oc3ccc(NC(=O)NC4CC4)c(Cl)c3F)c2cc1C(N)=O [crystalline form VI of fluvatinib mesylate] [fluvatinib methanesulfonate]
crystal transformation in ethanol [7, 13]: transformed into the crystalline form III

crystal transformation in ethanol [7, 12]: converted to Form III
crystal transformation under high temperature and high humidity conditions [5]: undergone crystal transformation
SMILES: COc1cc2nccc(Oc3ccc(NC(=O)NC4CC4)c(Cl)c3F)c2cc1C(N)=O [crystalline form VII of fluvatinib mesylate] [fluvatinib methanesulfonate]
crystal transformation in ethanol [7, 13]: transformed into the crystalline form III

Continued, molecule first:

SMILES: COc1cc2nccc(Oc3ccc(NC(=O)NC4CC4)c(Cl)c3F)c2cc1C(N)=O [crystalline form I of fluvatinib mesylate] [fluvatinib methanesulfonate]
hygroscopic weight gain ([1]; 25° C./80% RH): 1.3%
crystal transformation after DVS measurements ([1]; XRPD before and after DVS): did not undergo crystal transformation
change of content of related impurities / related substances [2]: no apparent change
crystal transformation [2]: did not show crystal transformation
crystal transformation during the process of preparing tablets [3]: neither the crystalline form I of fluvatinib mesylate nor the crystalline form III of fluvatinib mesylate undergoes crystal transformation
crystal transformation after the tablets being placed for 6 months [3]: no crystal transformation occurred
crystal transformation in single solvent [4]: maintained its form
crystal transformation under high temperature and high humidity conditions [5]: did not undergo crystal transformation

SMILES: COc1cc2nccc(Oc3ccc(NC(=O)NC4CC4)c(Cl)c3F)c2cc1C(N)=O [crystalline form I of fluvatinib, 4-(2-fluoro-3-chloro-(cyclopropylaminocarbonyl)aminophenoxy)-7-methoxy-6-quinolinecarboxamide]
change of content of related impurities / related substances [2, 11]: no change
crystal transformation [2, 11]: no occurrence of crystal transformation
crystalline form after stirring for 2 days ([6]; THF 0.4 mL): Form I
crystalline form after stirring for 2 days ([6]; THF-water (1:1) 0.4 mL): Form I
crystalline form after stirring for 2 days ([6]; acetone 0.4 mL): Form I
crystalline form after stirring for 2 days ([6]; acetone-water (1:2) 0.4 mL): Form I
crystalline form after stirring for 2 days ([6]; ethanol 0.4 mL): Form I
crystalline form after stirring for 2 days ([6]; ethanol-water (3:1) 0.4 mL): Form I
crystalline form after stirring for 2 days ([6]; ethyl acetate 0.4 mL): Form I
crystalline form after stirring for 2 days ([6]; isopropanol 0.4 mL): Form I
crystalline form after stirring for 2 days ([6]; isopropanol-water (1:1) 0.4 mL): Form I
crystalline form after stirring for 2 days ([6]; methanol 0.4 mL): Form I
crystalline form after stirring for 2 days ([6]; methanol-water (3:1) 0.4 mL): Form I

SMILES: COc1cc2nccc(Oc3ccc(NC(=O)NC4CC4)c(Cl)c3F)c2cc1C(N)=O [crystalline form II of fluvatinib mesylate] [fluvatinib methanesulfonate]
crystal transformation in ethanol [7, 12]: converted to Form III
crystal transformation in ethanol [7, 13]: transformed into the crystalline form III

SMILES: COc1cc2nccc(Oc3ccc(NC(=O)NC4CC4)c(Cl)c3F)c2cc1C(N)=O [crystalline form III of fluvatinib mesylate] [fluvatinib methanesulfonate]
hygroscopic weight ([1]; 25° C., 0-90% RH): 0.44%
change of content of related impurities / related substances [2]: no apparent change
crystal transformation [2]: did not show crystal transformation
crystal transformation during the process of preparing tablets [3]: neither the crystalline form I of fluvatinib mesylate nor the crystalline form III of fluvatinib mesylate undergoes crystal transformation
crystal transformation after the tablets being placed for 6 months [3]: no crystal transformation occurred
solubility [8]: better than that of lenvatinib
XRD results ([9]; 1.4-dioxane 1 mL): Form III
XRD results ([9]; acetone 1 mL): Form III
XRD results ([9]; acetonitrile 1 mL): Form III
XRD results ([9]; cyclohexane 1 mL): Form III
XRD results ([9]; dichloromethane 1 mL): Form III
XRD results ([9]; ethanol 1 mL): Form III
XRD results ([9]; ethyl acetate 1 mL): Form III
XRD results ([9]; isopropanol 1 mL): Form III
XRD results ([9]; n-heptane 1 mL): Form III
XRD results ([9]; n-hexane 1 mL): Form III
XRD results ([9]; tetrahydrofuran 1 mL): Form III
Stability data in oxygen gas, oxidation ([10]; 20-30° C., 0 hour): 93.66%
Stability data in oxygen gas, oxidation ([10]; 20-30° C., 24 hours): 94.10%
Stability data in oxygen gas, oxidation ([10]; 60° C., 0 hour): 93.61%
Stability data in oxygen gas, oxidation ([10]; 60° C., 24 hours): 94.00%
crystal transformation in ethanol [7, 12]: did not undergo crystal transformation
crystal transformation in ethanol [7, 13]: did not undergo crystal transformation
crystal transformation under high temperature and high humidity conditions [5]: did not undergo crystal transformation
